2 compounds from patent publication US20230339939A1 (Bayer Aktiengesellschaft, priority 2020, published 2023) can be followed below.

One assay addresses CSNK1A1 (Homo sapiens (Human), UniProt P48729). Put plainly: CSNK1A1 Assay 2 (ADP-Glo, 1 μM ATP, substrate biotin-Ahx-KRRRAL-pS-VASLPGL). In kind it is biochemical. The following applies: median, read-out: CSNK1A1 Assay 2 IC50 [mol/l] (median). A digest of the protocol:
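Activity read as ADP generated (ADP-Glo luciferase luminescence, 1 h detection steps at 22 °C). Enzyme was insect-cell-expressed GST–full-length human CSNK1A1, compound-preincubated 15 min before reaction with phosphopeptide substrate and 1 μM ATP in 50 mM HEPES pH 7.5, 10 mM MgCl2.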

The target of the next assay is CSNK1D (Homo sapiens (Human), UniProt P48730). Kind of assay: CSNK1D Assay (ADP-Glo, 1 μM ATP). The following applies: median, read-out: CSNK1D IC50 [mol/l] (median). Format: biochemical. A digest of the protocol: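 ADP-Glo luminescence reports ADP generated by GST-fused full-length human CSNK1D (insect-cell expressed, about 0.5 ng/μL) acting on a biotinylated peptide at 1 μM ATP. Test compounds were pre-bound to enzyme 15 min at 22° C in 50 mM HEPES pH 7.5.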
Chain of CSNK1D (P48730 whole entry, the tested form may be a part): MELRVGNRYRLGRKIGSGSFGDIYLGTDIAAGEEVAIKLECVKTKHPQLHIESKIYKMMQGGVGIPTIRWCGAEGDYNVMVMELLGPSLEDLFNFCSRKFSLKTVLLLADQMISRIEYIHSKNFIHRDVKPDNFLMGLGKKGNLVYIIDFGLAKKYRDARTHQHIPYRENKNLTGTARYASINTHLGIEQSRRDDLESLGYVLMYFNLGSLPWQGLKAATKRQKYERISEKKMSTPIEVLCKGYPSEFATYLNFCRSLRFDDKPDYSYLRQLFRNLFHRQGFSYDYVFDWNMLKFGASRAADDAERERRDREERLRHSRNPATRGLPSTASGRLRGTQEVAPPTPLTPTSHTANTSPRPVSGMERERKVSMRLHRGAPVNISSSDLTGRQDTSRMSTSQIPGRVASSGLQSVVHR

Chain of CSNK1A1 (P48729 whole entry): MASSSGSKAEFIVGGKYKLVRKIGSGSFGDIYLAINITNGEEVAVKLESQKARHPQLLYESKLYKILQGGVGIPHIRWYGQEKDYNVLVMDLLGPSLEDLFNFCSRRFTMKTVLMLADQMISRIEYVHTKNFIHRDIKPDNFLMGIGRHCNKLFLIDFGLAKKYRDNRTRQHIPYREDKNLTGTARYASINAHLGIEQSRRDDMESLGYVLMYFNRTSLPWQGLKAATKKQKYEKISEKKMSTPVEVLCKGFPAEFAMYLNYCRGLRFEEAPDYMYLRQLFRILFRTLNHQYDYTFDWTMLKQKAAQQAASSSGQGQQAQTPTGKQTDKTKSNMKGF

Take `Cc1cc2[nH]c(-c3ccnc(NC(=O)C(C)c4ccc(F)cc4)c3)c(-c3ccccn3)c2nc1F` (single isomer, unassigned; (+)) [Example 29, (+)-N-{4-[5-fluoro-6-methyl-3-(pyridin-2-yl)-1H-pyrrolo[3,2-b]pyridin-2-yl]pyridin-2-yl}-2-(4-fluorophenyl)propanamide]: the IC50 turned out to be 13.8 nM on CSNK1A1 and 30.2 nM on CSNK1D.

As to `Cc1cc2[nH]c(-c3ccnc(NC(=O)C(C)c4ccc(F)cc4)c3)c(-c3ccccn3)c2nc1F` (single isomer, unassigned; (-)) [Example 30, (−)-N-{4-[5-fluoro-6-methyl-3-(pyridin-2-yl)-1H-pyrrolo[3,2-b]pyridin-2-yl]pyridin-2-yl}-2-(4-fluorophenyl)propanamide], the IC50 at CSNK1A1 was found to be 1.69 nM; at CSNK1D, 4.65 nM.
